As usually defined, the IC50 is the point on the concentration scale where inhibition reaches its midpoint. For orientation: EC50 means the concentration giving half of the maximal effect. The AC50 is the midpoint of the concentration-response curve, whichever way the signal moves.

Our source for the IC50, EC50 and AC50 values is ChEMBL document CHEMBL1201862, “PubChem BioAssay data set” (2004).

Molecules are shown by their SMILES. Active and inactive are the calls of the source.

The target of one data set is T1, Protein Rev (Human immunodeficiency virus type 1 group M subtype B (isolate WMJ22)(HIV-1), UniProt P05866).
T1 sequence (P05866 whole entry): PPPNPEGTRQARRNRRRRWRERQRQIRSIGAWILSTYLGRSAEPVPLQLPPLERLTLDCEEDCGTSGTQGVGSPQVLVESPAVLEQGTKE
Description: HIV-1 Rev-RRE RNA binding disruptors, dose response, biochemical, protein-RNA interaction (AID 842). The arrangement: species or system Human immunodeficiency virus 1.

The next data set has as its target Large T antigen (Simian virus 40, UniProt P03070). The format is functional, Betapolyomavirus macacae.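 Further: Confirmatory-stage PubChem screen for compounds that inhibit SV40 T antigen.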
For data set [1], the system named is BJ. In words: cells. The class given is functional, cell-based. The conditions noted are these: Homo sapiens.
Data set [2] can be described thus: Luminescence-based counterscreen assay for KLF5 inhibitors: dose response cell-based high throughput screening assay to identify cytotoxic compounds using the IEC-6 intestinal epithelial cell line. [Related pubchem assays: 1700 (Primary screen.), 1834 (Confirmation screen.), 1858 (Summary AID.), 1905 (Counterscreen.)]. The format is functional. (In general: Counterscreens check selectivity or assay interference.)

Data set [3] in a line: cytotoxicity toward DRD oncogenic fibroblasts, dose response, cell-based, non-viral oncogenic, luminescence (AID 1934). The format is functional. The conditions noted are these: Homo sapiens.
Data set [4] deals with T2, Cytochrome P450 3A4 (Homo sapiens, UniProt P08684).
Data set [5] concerns BJ. In words: cytotoxicity toward BJ-TERT-LT-ST fibroblasts, dose response, cell-based, RAS-independent, luminescence (AID 1935).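 Further: BJ fibroblasts immortalized with TERT plus LT and ST oncogenes.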 The format is functional. As to conditions: Homo sapiens.
Data set [6] concerns BJ. In words: cytotoxicity toward BJ-TERT fibroblasts, dose response, cell-based, RAS-independent, luminescence (AID 1933). The class given is functional. The conditions noted are these: Homo sapiens.
The target of data set [7] is Peroxisome proliferator-activated receptor gamma/Nuclear receptor coactivator 2 (Homo sapiens, UniProt P37231). The format is functional.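 Further: agonist potency for raising coactivator recruitment to the receptor.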
In another data set the target is Cytochrome P450 2C9 (Homo sapiens, UniProt P11712).
For another data set, the target named is Cytochrome P450 2C19 (Homo sapiens, UniProt P33261). In words: Cytochrome panel assay with activity outcomes. Panel member name: p450-cyp2c19 Compounds with AC50 equal or less than 10 uM are considered active. The class given is functional. The conditions noted are these: read-out: AC50.
Data set [8] deals with Peroxisome proliferator-activated receptor gamma/Nuclear receptor coactivator 1 (Homo sapiens, UniProt P37231). The format is functional.
Data set [9] concerns the target Peroxisome proliferator-activated receptor gamma/Nuclear receptor coactivator 3 (Homo sapiens, UniProt P37231). The class given is functional.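 Further: agonist potency for raising coactivator recruitment to the receptor.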
In data set [10] the target is T2, Cytochrome P450 3A4. The source holds these as a separate data set.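 Further: CYP3A4 tested as one member of a cytochrome P450 panel screen.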
For the next data set, the target named is T3, Aminopeptidase N (Plasmodium falciparum FcB1/Columbia, UniProt O96935).
T3 sequence (O96935 whole entry): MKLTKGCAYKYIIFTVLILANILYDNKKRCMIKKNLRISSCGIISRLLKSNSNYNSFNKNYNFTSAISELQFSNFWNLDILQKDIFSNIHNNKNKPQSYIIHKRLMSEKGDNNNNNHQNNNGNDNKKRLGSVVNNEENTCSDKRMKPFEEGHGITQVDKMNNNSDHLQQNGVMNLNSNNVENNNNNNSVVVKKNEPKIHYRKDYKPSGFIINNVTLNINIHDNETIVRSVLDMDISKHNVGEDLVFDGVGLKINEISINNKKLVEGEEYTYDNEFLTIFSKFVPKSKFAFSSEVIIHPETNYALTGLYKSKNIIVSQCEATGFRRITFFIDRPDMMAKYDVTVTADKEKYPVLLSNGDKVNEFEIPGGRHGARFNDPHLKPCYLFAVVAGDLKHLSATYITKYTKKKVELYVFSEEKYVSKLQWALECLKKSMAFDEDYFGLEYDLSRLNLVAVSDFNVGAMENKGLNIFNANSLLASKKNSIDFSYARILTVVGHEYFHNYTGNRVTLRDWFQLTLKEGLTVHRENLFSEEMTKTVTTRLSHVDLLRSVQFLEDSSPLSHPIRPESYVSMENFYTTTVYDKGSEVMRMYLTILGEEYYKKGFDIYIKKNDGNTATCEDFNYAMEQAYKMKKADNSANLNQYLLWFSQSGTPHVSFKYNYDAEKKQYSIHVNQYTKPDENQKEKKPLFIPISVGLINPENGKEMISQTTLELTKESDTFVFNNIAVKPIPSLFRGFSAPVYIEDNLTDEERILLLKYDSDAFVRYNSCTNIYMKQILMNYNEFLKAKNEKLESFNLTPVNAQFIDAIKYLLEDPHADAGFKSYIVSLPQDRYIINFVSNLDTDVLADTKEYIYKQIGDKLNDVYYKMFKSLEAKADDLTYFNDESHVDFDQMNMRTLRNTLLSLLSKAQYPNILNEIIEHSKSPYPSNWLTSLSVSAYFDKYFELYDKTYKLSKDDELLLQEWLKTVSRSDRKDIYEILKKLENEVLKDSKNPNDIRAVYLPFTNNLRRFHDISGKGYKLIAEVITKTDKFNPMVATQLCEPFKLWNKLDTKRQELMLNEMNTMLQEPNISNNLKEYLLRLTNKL
Description: P. falciparum M1AAP inhibitors, biochemical, fluorogenic H-Leu-NHMec substrate, 1536-well (AID 1445). Also on record: species or system Plasmodium falciparum 3D7, 3D7.

The nature of data set [11]: MC4R antagonists, dose response, counter-screen for LGR2 antagonist project, cell-based, plate reader, cherry pick (AID 743444).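 Further: transfected HEK 293 cells stimulated with alpha-MSH peptide; potency of inhibitors of the alpha-MSH evoked signal.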 The format is functional.
The nature of data set [12]: Luminescence Cell-Based Dose Confirmation HTS to Identify Inhibitors of Platelet Dense Granule Release. [Related pubchem assays: 1663 (Primary HTS), 1678 (Summary of Project)]. The format is functional.
Data set [13] in a line: HEK293 cell cytotoxicity, dose response, cytotoxicity control, plate reader, cherry-picked samples (AID 743446). The class given is functional, cell-based.
Data set [14] can be described thus: LGR2 antagonists, dose response, cell-based, HEK293, CRE-luciferase reporter, cherry pick, set 2 (AID 743343).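 Further: transfected cells were stimulated with diluted bursicon conditioned medium after compound addition.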 The format is functional. A general note: A reporter such as luciferase makes a cellular process visible.
The target of data set [15] is Luciferin 4-monooxygenase (Photinus pyralis, UniProt P08659). In words: firefly luciferase enzyme inhibitors, dose response, biochemical, luminescence (AID 1891).
Data set [16] can be described thus: Luminescence Cell-Based Dose Response HTS to Identify Inhibitors of 5'UTR Stem-Loop Driven Prion Protein mRNA Translation in H4 Neuroglioblastoma Cells. [Related pubchem assays: 1827 (Project Summary), 1813 (Primary HTS)]. The format is functional.
Data set [17] is described as follows: inhibitors of firefly luciferase expression or activity, dose response, H4 neuroglioma cells, luminescence (AID 1990). The format is functional, cell-based.
Data set [18] deals with Eukaryotic translation initiation factor 4E (Mus musculus, UniProt P63073). Description: eIF4E–eIF4G protein interaction inhibitors, dose response, biochemical, TR-FRET (AID 855).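 Further: potency for disrupting eIF4E binding to eIF4GI seen as loss of FRET.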 The format is functional. In general terms: In TR-FRET formats the signal depends on donor and acceptor labels being close together.
The next data set addresses T4, Insulin-degrading enzyme (Homo sapiens, UniProt P14735).
T4 sequence (P14735 whole entry): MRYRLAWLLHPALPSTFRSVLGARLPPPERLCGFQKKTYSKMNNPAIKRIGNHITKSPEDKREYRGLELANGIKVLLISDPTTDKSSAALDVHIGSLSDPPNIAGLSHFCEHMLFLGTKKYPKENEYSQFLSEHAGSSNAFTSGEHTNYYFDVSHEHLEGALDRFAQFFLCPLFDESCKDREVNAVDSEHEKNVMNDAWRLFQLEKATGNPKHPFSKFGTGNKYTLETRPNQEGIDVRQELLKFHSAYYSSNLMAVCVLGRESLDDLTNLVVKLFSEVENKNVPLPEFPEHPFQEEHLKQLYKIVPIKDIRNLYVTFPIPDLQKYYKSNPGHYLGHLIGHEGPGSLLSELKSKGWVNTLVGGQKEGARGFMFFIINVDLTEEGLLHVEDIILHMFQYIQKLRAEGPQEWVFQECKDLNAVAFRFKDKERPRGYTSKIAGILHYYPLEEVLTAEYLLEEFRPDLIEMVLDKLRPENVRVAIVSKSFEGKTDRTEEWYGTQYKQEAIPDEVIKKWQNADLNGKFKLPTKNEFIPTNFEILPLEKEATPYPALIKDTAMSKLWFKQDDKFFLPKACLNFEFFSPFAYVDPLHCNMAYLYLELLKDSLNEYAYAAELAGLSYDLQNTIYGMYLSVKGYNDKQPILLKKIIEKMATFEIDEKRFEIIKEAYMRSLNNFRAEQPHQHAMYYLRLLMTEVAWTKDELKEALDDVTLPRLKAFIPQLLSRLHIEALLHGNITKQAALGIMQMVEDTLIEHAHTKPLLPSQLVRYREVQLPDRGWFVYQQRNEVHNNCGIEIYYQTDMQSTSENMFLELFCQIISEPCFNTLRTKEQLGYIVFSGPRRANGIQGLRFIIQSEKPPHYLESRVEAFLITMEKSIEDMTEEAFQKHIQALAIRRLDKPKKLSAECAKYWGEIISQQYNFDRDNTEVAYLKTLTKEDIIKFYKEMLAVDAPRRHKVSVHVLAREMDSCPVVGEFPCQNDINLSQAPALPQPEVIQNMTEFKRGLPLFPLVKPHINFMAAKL
In words: Dose Response: Fluorescence polarization-based cell-based high throughput dose response assay for inhibitors of insulin-degrading enzyme (IDE). [Related pubchem assays: 434962 (Primary screen (IDE inhibitors in singlicate)), 449730 (Counterscreen (Cytotoxicity in triplicate)), 435028 (Confirmation (IDE inhibitors in triplicate)), 434984 (Summary …. The format is functional.

The nature of data set [19]: Counterscreen for IDE inhibitors: Luminescence-based cell-based high throughput dose response assay to identify compounds that are cytotoxic to HEK cells. [Related pubchem assays: 434962 (Primary screen (IDE inhibitors in singlicate)), 449730 (Counterscreen (Cytotoxicity in triplicate)), 435028 (Confirmation (IDE inhibitors in triplicate)) …. The class given is functional. As to conditions: HEK293.

Data set [20] can be described thus: cytotoxicity in HEK-293T cells, dose response, cytotoxicity control for BCR NF-kB inhibitor project, luminescence, B-cell screen hits (AID 489021).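 Further: HEK-293T cells carrying an NF-kB luciferase reporter; cells exposed to compound for about 14 hours before viability readout.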 The class given is functional, cell-based.
A short description of data set [21]: Luminescence Cell-Based Dose Retest to Confirm Inhibitors of Cancer Stem Cells. [Related pubchem assays (depositor defined):AID2717, AID2721]. The format is functional. The conditions noted are these: Homo sapiens.

Sequence of Peroxisome proliferator-activated receptor gamma/Nuclear receptor coactivator 1 (P37231 whole entry): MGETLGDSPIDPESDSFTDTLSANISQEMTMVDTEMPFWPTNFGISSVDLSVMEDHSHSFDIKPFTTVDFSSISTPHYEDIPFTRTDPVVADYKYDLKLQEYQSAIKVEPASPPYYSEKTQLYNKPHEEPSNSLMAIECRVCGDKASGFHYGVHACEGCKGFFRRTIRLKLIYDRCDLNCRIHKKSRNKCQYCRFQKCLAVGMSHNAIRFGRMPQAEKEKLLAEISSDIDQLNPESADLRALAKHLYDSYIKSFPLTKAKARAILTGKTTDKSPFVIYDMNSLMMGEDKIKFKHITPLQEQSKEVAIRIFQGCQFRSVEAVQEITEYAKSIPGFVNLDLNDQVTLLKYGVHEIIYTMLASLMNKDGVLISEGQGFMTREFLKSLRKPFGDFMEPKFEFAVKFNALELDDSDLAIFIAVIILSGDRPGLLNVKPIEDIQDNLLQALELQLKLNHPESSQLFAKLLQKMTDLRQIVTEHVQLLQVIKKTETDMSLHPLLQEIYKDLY
Sequence of Peroxisome proliferator-activated receptor gamma/Nuclear receptor coactivator 1 (Q15788 whole entry, further chain): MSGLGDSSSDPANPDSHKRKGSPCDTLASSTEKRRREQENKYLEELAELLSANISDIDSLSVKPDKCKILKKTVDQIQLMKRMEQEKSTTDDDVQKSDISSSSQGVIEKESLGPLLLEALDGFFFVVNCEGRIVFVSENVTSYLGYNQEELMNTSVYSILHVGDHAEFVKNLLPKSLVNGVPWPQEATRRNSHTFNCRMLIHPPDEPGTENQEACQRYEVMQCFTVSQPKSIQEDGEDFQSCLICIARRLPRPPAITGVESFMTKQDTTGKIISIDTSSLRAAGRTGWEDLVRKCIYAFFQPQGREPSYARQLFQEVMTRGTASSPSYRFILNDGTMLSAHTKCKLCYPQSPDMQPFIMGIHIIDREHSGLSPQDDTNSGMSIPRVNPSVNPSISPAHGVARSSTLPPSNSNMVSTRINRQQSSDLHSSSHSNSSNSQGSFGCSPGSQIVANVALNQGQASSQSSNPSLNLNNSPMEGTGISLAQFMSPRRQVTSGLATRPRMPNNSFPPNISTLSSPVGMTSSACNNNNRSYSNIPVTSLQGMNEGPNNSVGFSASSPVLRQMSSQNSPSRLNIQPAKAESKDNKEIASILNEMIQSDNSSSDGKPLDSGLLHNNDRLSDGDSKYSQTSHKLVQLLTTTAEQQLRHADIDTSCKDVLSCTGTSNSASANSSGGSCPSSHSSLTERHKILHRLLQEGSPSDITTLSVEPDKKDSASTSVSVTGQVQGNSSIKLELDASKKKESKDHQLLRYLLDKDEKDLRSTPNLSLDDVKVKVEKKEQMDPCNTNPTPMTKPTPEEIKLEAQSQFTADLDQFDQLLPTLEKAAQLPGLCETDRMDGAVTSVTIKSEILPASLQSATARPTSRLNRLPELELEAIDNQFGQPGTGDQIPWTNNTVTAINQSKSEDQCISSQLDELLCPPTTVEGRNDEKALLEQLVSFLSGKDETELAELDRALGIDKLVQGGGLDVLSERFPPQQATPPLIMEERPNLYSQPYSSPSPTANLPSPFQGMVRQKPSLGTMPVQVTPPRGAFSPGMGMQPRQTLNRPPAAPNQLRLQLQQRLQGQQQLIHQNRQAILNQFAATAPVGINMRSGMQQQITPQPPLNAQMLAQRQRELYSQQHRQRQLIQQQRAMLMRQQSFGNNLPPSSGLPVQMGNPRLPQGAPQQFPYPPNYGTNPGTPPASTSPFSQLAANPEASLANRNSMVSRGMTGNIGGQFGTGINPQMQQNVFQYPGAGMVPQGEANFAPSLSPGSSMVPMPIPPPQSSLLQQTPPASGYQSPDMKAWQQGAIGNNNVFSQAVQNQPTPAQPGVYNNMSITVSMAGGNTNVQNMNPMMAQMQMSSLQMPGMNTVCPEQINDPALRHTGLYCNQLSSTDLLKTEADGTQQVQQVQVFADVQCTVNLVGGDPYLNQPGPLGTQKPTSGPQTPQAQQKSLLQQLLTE
Sequence of Peroxisome proliferator-activated receptor gamma/Nuclear receptor coactivator 3 (P37231 whole entry): as the sequence (P37231 whole entry) above
Sequence of Peroxisome proliferator-activated receptor gamma/Nuclear receptor coactivator 3 (Q9Y6Q9 whole entry, further chain): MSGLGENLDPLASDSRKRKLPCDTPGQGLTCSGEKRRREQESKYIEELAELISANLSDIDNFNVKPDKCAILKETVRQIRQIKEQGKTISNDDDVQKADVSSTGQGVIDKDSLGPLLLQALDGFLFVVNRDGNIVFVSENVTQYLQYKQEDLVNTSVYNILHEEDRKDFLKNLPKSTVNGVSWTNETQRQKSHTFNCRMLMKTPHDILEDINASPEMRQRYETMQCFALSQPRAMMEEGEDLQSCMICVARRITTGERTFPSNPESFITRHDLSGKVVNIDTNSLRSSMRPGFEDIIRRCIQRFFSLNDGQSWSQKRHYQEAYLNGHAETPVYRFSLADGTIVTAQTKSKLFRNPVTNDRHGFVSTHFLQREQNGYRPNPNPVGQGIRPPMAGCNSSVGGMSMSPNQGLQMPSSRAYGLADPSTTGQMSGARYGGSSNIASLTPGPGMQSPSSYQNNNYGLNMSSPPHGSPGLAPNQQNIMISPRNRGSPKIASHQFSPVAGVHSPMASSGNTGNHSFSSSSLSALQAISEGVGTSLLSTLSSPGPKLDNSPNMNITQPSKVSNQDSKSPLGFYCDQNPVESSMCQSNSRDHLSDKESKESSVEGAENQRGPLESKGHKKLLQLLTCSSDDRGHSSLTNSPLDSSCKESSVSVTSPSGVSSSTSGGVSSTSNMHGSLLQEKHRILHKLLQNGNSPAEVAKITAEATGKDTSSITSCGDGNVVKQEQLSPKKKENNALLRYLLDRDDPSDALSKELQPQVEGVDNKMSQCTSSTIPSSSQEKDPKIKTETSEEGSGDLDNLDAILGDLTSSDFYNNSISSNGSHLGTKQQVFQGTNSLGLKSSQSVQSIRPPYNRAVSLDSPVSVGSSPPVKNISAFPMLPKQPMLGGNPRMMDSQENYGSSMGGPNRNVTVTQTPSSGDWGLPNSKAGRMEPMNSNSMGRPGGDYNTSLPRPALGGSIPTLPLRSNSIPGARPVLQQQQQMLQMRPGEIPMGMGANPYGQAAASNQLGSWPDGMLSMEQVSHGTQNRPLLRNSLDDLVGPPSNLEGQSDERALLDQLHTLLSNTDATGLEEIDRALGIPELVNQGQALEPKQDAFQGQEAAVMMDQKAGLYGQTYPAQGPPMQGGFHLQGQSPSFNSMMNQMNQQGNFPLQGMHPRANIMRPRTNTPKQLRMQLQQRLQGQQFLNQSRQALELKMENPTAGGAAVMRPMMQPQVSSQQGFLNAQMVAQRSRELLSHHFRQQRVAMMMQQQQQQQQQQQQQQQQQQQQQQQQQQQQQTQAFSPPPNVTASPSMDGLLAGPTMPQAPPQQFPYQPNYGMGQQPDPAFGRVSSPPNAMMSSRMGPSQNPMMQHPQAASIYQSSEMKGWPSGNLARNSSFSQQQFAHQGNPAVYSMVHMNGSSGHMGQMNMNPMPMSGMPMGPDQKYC
T2 sequence (P08684 whole entry): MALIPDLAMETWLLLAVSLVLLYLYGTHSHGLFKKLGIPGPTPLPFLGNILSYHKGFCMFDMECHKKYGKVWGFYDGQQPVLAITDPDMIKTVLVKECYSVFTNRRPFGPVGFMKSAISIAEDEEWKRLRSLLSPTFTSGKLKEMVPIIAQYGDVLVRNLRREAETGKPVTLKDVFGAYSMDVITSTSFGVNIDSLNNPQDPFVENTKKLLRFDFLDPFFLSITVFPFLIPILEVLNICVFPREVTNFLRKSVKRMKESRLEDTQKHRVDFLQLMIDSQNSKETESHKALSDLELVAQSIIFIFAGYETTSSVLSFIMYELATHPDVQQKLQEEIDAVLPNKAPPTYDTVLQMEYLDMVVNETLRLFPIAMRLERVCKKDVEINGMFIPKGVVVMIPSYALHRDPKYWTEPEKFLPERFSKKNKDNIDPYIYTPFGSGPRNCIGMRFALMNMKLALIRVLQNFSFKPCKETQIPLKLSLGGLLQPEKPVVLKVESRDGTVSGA
Sequence of Eukaryotic translation initiation factor 4E (P63073 whole entry): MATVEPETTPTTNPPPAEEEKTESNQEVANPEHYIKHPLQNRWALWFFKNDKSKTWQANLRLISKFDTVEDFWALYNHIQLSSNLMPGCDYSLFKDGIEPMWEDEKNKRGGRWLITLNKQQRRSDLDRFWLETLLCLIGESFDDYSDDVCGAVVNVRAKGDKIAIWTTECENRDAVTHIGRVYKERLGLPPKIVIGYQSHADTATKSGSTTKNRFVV

For `CCOc1cc(-c2ccc(N)c(OCC)c2)ccc1N`, the IC50 on Protein Rev is 2.47 µM (active); at Large T antigen, 12.3 µM (active).
In the case of `COC(=O)c1ccc(Oc2cc(C)nc(-n3nc(C)cc3C)n2)cc1`, the EC50 in the data set with BJ [1] is 0.851 µM (active); in data set [3], 2.25 µM (active); in the data set with BJ [5] it was 0.699 µM (active); with BJ [6], 0.69 µM (active). Moreover, the IC50 in data set [2] is 34.2 µM (not active). Also, the AC50 on Cytochrome P450 3A4 [4] was 39.8 µM (inconclusive).
For the molecule `N#Cc1c(-c2ccccc2)cc(-c2ccccc2)nc1SCc1nnc(-c2ccccc2)o1`, the EC50 in data set [7] is reported as 25.1 µM (not active); in data set [8], 26.1 µM (not active); in [9] it was 27.6 µM (not active). Further, the figures for the AC50 at Cytochrome P450 2C9, at Cytochrome P450 2C19 and at Cytochrome P450 3A4 [4] were 0.251 µM (inconclusive), 1.41 µM (inconclusive) and 7.08 µM (inconclusive), respectively.
As for `CCO[C@@H]1OC(C(=O)N2CCN(Cc3ccc4c(c3)OCO4)CC2)=C[C@H](c2csc3ccccc23)[C@H]1CCCO`, the EC50 in [7], in data set [8] and in data set [9] was > 79.4 µM (not active) each time.
Turning to `Cc1cc(Cl)ccc1Oc1ncnc2oc(-c3ccccc3)cc12`, the EC50 in data set [7], in data set [8] and in data set [9] was > 79.4 µM (not active) each time. The AC50 result at Cytochrome P450 3A4 [10] is listed as “inconclusive”.
Take `COc1ccc(S(=O)(=O)N2CCC(C(=O)NCc3ccccc3)CC2)cc1OC`: the IC50 at Aminopeptidase N was 68.4 µM (active).
With `Clc1ccccc1/C=C/c1nc(-c2ccccn2)no1`, the AC50 in data set [11] was 2.74 µM (active); in data set [13], > 52 µM (inactive); in data set [14] it was 2 µM (active). Besides, the EC50 in data set [12] is 6.25 µM (active); in data set [15] it was 1.87 µM (active); in data set [16] it was 5.54 µM (active); in data set [17], 3.76 µM (active). The IC50 in data set [2] is on record as > 39.8 µM (not active).
For `O=C(NCc1ccc2c(c1)OCO2)c1ccc2c(c1)OCCO2`, the IC50 in data set [18] was 50 µM (inactive).
In the case of `NC(=O)c1ccc(NC(=O)c2ccccc2S(=O)(=O)c2ccccc2[N+](=O)[O-])cc1`, the IC50 on Aminopeptidase N is 102 µM (active).
Turning to `O=S(=O)(c1ccc(SCc2cccc(Cl)c2)nc1)N1CCCC1`, the IC50 at Insulin-degrading enzyme is given as > 55.9 µM (not active); in data set [19], 27.1 µM (not active).
As to `CCc1sc(C(=O)Nc2cccc(-n3cnnn3)c2)cc1C`, the IC50 at Insulin-degrading enzyme is 17.3 µM (not active); in [19], 20.7 µM (not active); in [20] it was > 80 µM (inactive).
On to `CC(=O)c1cccc(OCC(=O)N2CCN(c3ccc(C(F)(F)F)cn3)CC2)c1`, for which the IC50 on Insulin-degrading enzyme is 19.2 µM (not active); in data set [19], 19.4 µM (not active).
For the molecule `COc1ccc(OC)c(Nc2cc(C)nc3nc(C)nn23)c1`, the IC50 in data set [2] was 13 µM (not active).
As for `NC(=O)c1sc(-c2ccsc2)cc1NS(=O)(=O)c1ccc(C(F)(F)F)cc1`, the AC50 in data set [21] was 11.7 µM (active). Also, on Aminopeptidase N, the IC50 is 22.1 µM (active).
